The assay relates to SARS-CoV-2 (WA1). As to the kind of experiment: microbe, parasite or virus in culture. Format: cell-based.
The mark [1] stands for this setting: VIRADEM compounds, SARS-CoV-2(WA1) CPE assay, Round 2, concentration range 1000-0.05 nM, Vero E6, read-out: IC50.
Where [2] appears, read: Severe acute respiratory syndrome coronavirus 2, Vero C1008, VIRADEM compounds, SARS-CoV-2(WA1) CPE assay, Round 2, concentration range 1000-0.05 nM, Vero E6, read-out: IC50.

Structures can show the parent of a compound that is named as a salt. Where two headings read alike, the source gives them in different places.

Usually IC50 stands for the concentration that inhibits the measured activity by half.

Take `Cc1cccc(Nc2nc(Nc3ccc(C(C)C)cc3)nc(N3CCOCC3)n2)c1` [VIRADEM-12251, N-(4-Isoproylphenyl)-6-morpholin-4-yl-N^1-m-tolyl-[1,3,5]triazine-2,4-diamine hydrochloride]: the IC50 under setting [1] is 560 nM.
`Cc1ccc(Nc2nc(N3CCOCC3)nc(N3CCC(C)CC3)n2)cc1C` [VIRADEM-15231, (3,4-Dimethylphenyl)-[4-(4-methylpiperidin-1-yl)-6-morpholin-4-yl-[1,3,5]triazin-2-yl]-amine]: under setting [2], the 50% inhibitory concentration (IC50) turned out to be 350 nM.
As for `Cc1ccc(Nc2nc(N3CCOCC3)nc(N3CCOCC3)n2)cc1Cl` [VIRADEM-10886, (3-Chloro-4-methylphenyl)-(4,6-dimorpholin-4-yl-[1,3,5]triazin-2-yl)-amine hydrochloride], the concentration for half-maximal inhibition (IC50) under setting [2] was 310 nM.
In the case of `c1ccc(Oc2ccc(Nc3nc(C4CCNC4)nc(C4CCNC4)n3)cc2)cc1` (stereo not drawn) [VIRADEM-11503, (4,6-Dipyrrolidin-4-yl-[1,3,5]triazin-2-yl)-(4-phenoxyphenyl)-amine hydrochloride], the IC50 under setting [2] is greater than 1000 nM.
On the same count and under the same terms, under `Cc1ccc(Nc2nc(N3CCOCC3)nc(N3CCOCC3)n2)cc1` [VIRADEM-10882, (4,6-Dimorpholin-4-yl-[1,3,5]triazin-2-yl)-p-tolyl-amine hydrochloride] stands greater than 1000 nM.
`Cc1ccc(Nc2nc(N3CCOCC3)nc(N(C)c3ccccc3)n2)cc1C` [VIRADEM-15168, N-(3,4-Dimethylphenyl)-N^1-methyl-6-morpholin-4-yl-N^1-phenyl-[1,3,5]triazine-2,4-diamine]: the 50% inhibitory concentration (IC50) under setting [1] is 180 nM.
With `C1CCN(c2nc(N3CCOCC3)nc(N3CCOCC3)n2)CC1` [VIRADEM-10903, 2,4-Dimorpholin-4-yl-6-piperidin-1-yl-[1,3,5]triazin hydrochloride], the concentration for half-maximal inhibition (IC50) under setting [2] is greater than 1000 nM.
Consider `Cc1ccc(NC2N=C(N)N=C(N3CCCC3)N2c2ccc(F)cc2)cc1C` (stereo not drawn) [VIRADEM-11809, N-(3,4-Dimethylphenyl)-N^1-(4-fluorophenyl)-6-pyrrolidin-1-yl-[1,3,5]triazine-2,4-diamine hydrochloride], for which the half-inhibitory concentration (IC50) under setting [2] is greater than 1000 nM.
Take `c1ccc(CN2CCN(c3nc(N4CCOCC4)nc(N4CCOCC4)n3)CC2)cc1` [VIRADEM-15199, 2-(4-Benzylpiperazin-1-yl)-4,6-dimorpholin-4-yl-[1,3,5]triazine]: the IC50 under setting [2] is greater than 1000 nM.
Take `CCCCc1ccc(Nc2nc(Nc3cccc(C(C)=O)c3)nc(N3CCOCC3)n2)cc1` [VIRADEM-12037, 1-{3-[4-(4-Butylphenylamino)-6-morpholin-4-yl-[1,3,5]triazin-2-ylamino]-phenyl}-ethanone]: under setting [2], the IC50 is greater than 1000 nM.
In the case of `Cc1ccc(S(=O)(=O)NNc2nc(N3CCOCC3)nc(N3CCOCC3)n2)cc1` [VIRADEM-15295, N-(4,6-Dimorpholin-4-yl-[1,3,5]triazin-2-yl)-N^1-tozylhydrazin], the IC50 under setting [1] was greater than 1000 nM.
As for `Cc1ccc(Nc2nc(N3CCOCC3)nc(N3CCOCC3)n2)cc1C` [VIRADEM-10884, (3,4-dimethylphenyl)-(4,6-dimorpholin-4-yl-[1,3,5]triazin-2-yl)-amine], the concentration for half-maximal inhibition (IC50) (Severe acute respiratory syndrome coronavirus 2, Vero C1008) turned out to be 80 nM.
Consider `CCOc1cccc(N2C(N3CCCC3)=NC(N)=NC2Nc2ccc(C)c(C)c2)c1` (stereo not drawn) [VIRADEM-12185, N-(3,4-Dimethylphenyl)-N^1-(3-ethoxyphenyl)-6-pyrrolidin-1-yl-[1,3,5]triazine-2,4-diamine hydrochloride], for which, under setting [2], the concentration for half-maximal inhibition (IC50) is greater than 1000 nM.
Regarding `c1ccc(Oc2ccc(Nc3nc(N4CCOCC4)nc(N4CCOCC4)n3)cc2)cc1` [VIRADEM-10892, (4,6-Dimorpholin-4-yl-[1,3,5]triazin-2-yl)-(4-phenoxyphenyl)-amine hydrochloride], under setting [2], the IC50 is greater than 1000 nM.
With `c1ccc(Nc2nc(N3CCCC3)nc(N3CCCC3)n2)cc1` [VIRADEM-11528, (4,6-Dipyrrolidin-1-yl-[1,3,5]triazin-2-yl)-phenylamine hydrochloride], the IC50 under setting [2] is greater than 1000 nM.
The same measure, in the same setting: under `COC(=O)c1ccc(Nc2nc(Nc3cccc(OC)c3)nc(N3CCOCC3)n2)cc1` [VIRADEM-12329, 4-[4-(3-Methoxyphenylamino)-6-morpholin-4-yl-[1,3,5]triazin-2-ylamino]-benzoic acid methyl ester] stands 20 nM.
Turning to `Cc1ccc(Nc2nc(Nc3ccc(C(C)C)cc3)nc(N3CCOCC3)n2)cc1` [VIRADEM-12253, N-(4-Isoproylphenyl)-6-morpholin-4-yl-N^1-p-tolyl-[1,3,5]triazine-2,4-diamine hydrochloride], the IC50 under setting [1] stood at 510 nM.
With `Cc1cccc(N2C(N3CCOCC3)=NC(N)=NC2Nc2cccc(F)c2)c1` (stereo not drawn) [VIRADEM-11786, N-(3-Fluorophenyl)-6-morpholin-4-yl-N^1-m-tolyl-[1,3,5]triazine-2,4-diamine hydrochloride], under setting [2], the IC50 is 380 nM.
Regarding `COc1ccccc1Nc1nc(N2CCCC2)nc(N2CCCC2)n1` [VIRADEM-11597, (4,6-Dipyrrolidin-1-yl-[1,3,5]triazin-2-yl)-(2-methoxyphenyl)-amine hydrochloride], under setting [2], the IC50 is greater than 1000 nM.
In the case of `Cc1cc(C)cc(Nc2nc(N3CCOCC3)nc(N3CCOCC3)n2)c1` [VIRADEM-10887, (3,5-Dimethylphenyl)-(4,6-dimorpholin-4-yl-[1,3,5]triazin-2-yl)-amine], the IC50 under setting [2] is greater than 1000 nM.
Regarding `Clc1ccc(Oc2nc(N3CCOCC3)nc(N3CCOCC3)n2)cc1` [VIRADEM-15106, 2-(4-Chlorophenoxy)-4,6-dimorpholin-4-yl-[1,3,5]triazine], the IC50 under setting [2] was greater than 1000 nM.
On to `Clc1ccc(Nc2nc(N3CCOCC3)nc(N3CCOCC3)n2)cc1Cl` [VIRADEM-10258, (3,4-Dichlorophenyl)-(4,6-dimorpholin-4-yl-[1,3,5]triazin-2-yl)-amine hydrochloride], for which, under setting [2], the IC50 was determined as 610 nM.
Take `COc1ccc(CCNc2nc(N3CCOCC3)nc(N3CCOCC3)n2)cc1OC` [VIRADEM-15243, [2-(3,4-Dimethoxyphenyl)-ethyl]-(4,6-dimorpholin-4-yl-[1,3,5]triazin-2-yl)-amine]: under setting [2], the IC50 was greater than 1000 nM.
Consider `Cc1ccc(Nc2nc(N3CCOCC3)nc(N3CCCc4ccccc43)n2)cc1C` [VIRADEM-15278, [4-(3,4-Dihydro-2-H-quinolin-1-yl)-6-morpholin-4-yl-[1,3,5]triazin-2-yl]-(3,4-dimethylphenyl)-amine], for which the half-maximal inhibitory concentration (IC50) under setting [1] was determined as 120 nM.
Turning to `NC(=O)C1CCN(c2nc(N3CCOCC3)nc(N3CCOCC3)n2)CC1` [VIRADEM-15361, 1-(4,6-Dimorpholin-4-yl-[1,3,5]triazin-2-yl)-piperidine-4-carboxylic acid amide], the IC50 under setting [2] is greater than 1000 nM.
As to `Cc1ccc(Nc2nc(C3CCNC3)nc(C3CCNC3)n2)cc1` (stereo not drawn) [VIRADEM-11139, (4,6-Dipyrrolidin-4-yl-[1,3,5]triazin-2-yl)-p-tolyl-amine hydrochloride], under setting [2], the IC50 is greater than 1000 nM.
For `COc1ccc(Nc2nc(Nc3ccc(C(N)=O)cc3)nc(N3CCOCC3)n2)cc1` [VIRADEM-15356, 4-[4-(4-Methoxyphenylamino)-6-morpholin-4-yl-[1,3,5]triazin-2-ylamino]-benzamide], the 50% inhibitory concentration (IC50) under setting [2] was 120 nM.
Consider `CC(=O)c1cccc(Nc2nc(Nc3cccc(Cl)c3)nc(N3CCOCC3)n2)c1` [VIRADEM-12188, 1-{3-[4-(3-Chlorophenylamino)-6-morpholin-4-yl-[1,3,5]triazin-2-ylamino]-phenyl}-ethanone], for which the half-maximal inhibitory concentration (IC50) under setting [2] was 320 nM.
Turning to `Fc1ccc(Nc2nc(N3CCOCC3)nc(N3CCOCC3)n2)cc1Cl` [VIRADEM-10893, (3-Chloro-4-fluorophenyl)-(4,6-dimorpholin-4-yl-[1,3,5]triazin-2-yl)-amine hydrochloride], under setting [2], the IC50 is greater than 1000 nM.
Regarding `Cc1ccccc1Nc1nc(N2CCOCC2)nc(N2CCOCC2)n1` [VIRADEM-12434, (4,6-Dimorpholin-4-yl-[1,3,5]triazin-2-yl)-o-tolyl-amine], the IC50 under setting [2] was greater than 1000 nM.
As for `Cc1cccc(Nc2nc(N3CCOCC3)nc(N3CCOCC3)n2)c1` [VIRADEM-10848, (4,6-Dimorpholin-4-yl-[1,3,5]triazin-2-yl)-m-tolyl-amine hydrochloride], under setting [2], the IC50 is greater than 1000 nM.
Consider `COc1ccccc1N1C(N2CCOCC2)=NC(N)=NC1Nc1cc(C)cc(C)c1` (stereo not drawn) [VIRADEM-12270, N-(3,5-Dimethylphenyl)-N^1-(2-methoxyphenyl)-6-morpholin-4-yl-[1,3,5]triazine-2,4-diamine hydrochloride], for which the IC50 under setting [2] is 380 nM.
Regarding `CC(C)c1ccc(Nc2nc(N3CCCC3)nc(N3CCCC3)n2)cc1` [VIRADEM-12307, (4,6-Dipyrrolidin-1-yl-[1,3,5]triazin-2-yl)-(4-isopropylphenyl)-amine hydrochloride], under setting [2], the IC50 was greater than 1000 nM.
As for `CCCCc1ccc(Nc2nc(N3CCCC3)nc(N3CCCC3)n2)cc1` [VIRADEM-11511, (4-Butylphenyl)-(4,6-dipyrrolidin-1-yl-[1,3,5]triazin-2-yl)-amine hydrochloride], the IC50 under setting [2] is greater than 1000 nM.
Regarding `c1cc2c(cc1Nc1nc(Nc3ccc4c(c3)OCO4)nc(N3CCOCC3)n1)OCO2` [VIRADEM-11566, N,N^1-bis-benzo[1,3]dioxol-5-yl-6-morpholin-4-yl-[1,3,5]triazine-2,4-diamine], the concentration for half-maximal inhibition (IC50) under setting [2] stood at 320 nM.
Consider `CC(=O)c1cccc(Nc2nc(Nc3cccc(C)c3)nc(N3CCOCC3)n2)c1` [VIRADEM-11778, 1-[3-(4-Morpholin-4-yl-6-m-tolylamino-[1,3,5]triazin-2-ylamino)-phenyl]-ethanone hydrochloride], for which, under setting [2], the half-inhibitory concentration (IC50) came out at 320 nM.
In the case of `CCc1ccc(Nc2nc(Nc3ccc(Cl)c(Cl)c3)nc(N3CCOCC3)n2)cc1` [VIRADEM-11758, N-(3,4-Dichlorophenyl)-N^1-(4-ethyphenyl)-6-morpholin-4-yl-[1,3,5]triazine-2,4-diamine], the IC50 under setting [1] is greater than 1000 nM.
With `FC(F)(F)Oc1ccc(Nc2nc(N3CCOCC3)nc(N3CCOCC3)n2)cc1` [VIRADEM-10891, (4,6-Dimorpholin-4-yl-[1,3,5]triazin-2-yl)-(4-trifluoromethoxyphenyl)-amine hydrochloride], under setting [2], the IC50 was greater than 1000 nM.
`c1coc(CNc2nc(N3CCOCC3)nc(N3CCOCC3)n2)c1` [VIRADEM-15234, (4,6-Dimorpholin-4-yl-[1,3,5]triazin-2-yl)-furan-2-ylmethylamine]: the IC50 under setting [2] was greater than 1000 nM.

(Values after US20260076973A1 (priority 2023, published 2026).)
